Test results taken from patent US20260317324A1, “BIFUNCTIONAL COMPOUNDS FOR DEGRADING BRAF VIA UBIQUITIN PROTEOSOME PATHWAY” (Nurix Therapeutics, Inc., priority 2023, published 2026).

Columns and labels:
Assay type in all cases: cell-based
BRAF V600E = target: T1, BRAF V600E (Homo sapiens, UniProt P15056, V600E); experiment: BRAF HiBiT degradation assay, C-terminal HiBiT-tagged BRAF V600E A375 cells (clone 1F10), Nano-Glo HiBiT Lytic assay; conditions: A375 (BRAF V600E, Class 1); for DC50: DC50 at 50% degradation; for Dmax: A-375, observed Dmax, % protein degraded relative to DMSO control
T1 construct: endogenous C-terminal HiBiT fusion tag on BRAF V600E allele; endogenous in cells; host or cells: A375 clone 1F10 (CRISPR-Cas9 knock-in of the HiBiT tag; parental A375 from ATCC)
Outline: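 A375 cells with CRISPR knock-in C-terminal HiBiT on endogenous BRAF V600E (clone 1F10) were seeded and cultured 24 h at 37 °C, then dosed with an 11-point half-log series (1 μM to 0.01 nM, duplicate, 0.2% DMSO). Lytic HiBiT luminescence gave % protein remaining; DC50 was the fitted concentration at 50%.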

BRAF G469A = target: T2, BRAF G469A (Homo sapiens, UniProt P15056, G469A); experiment: BRAF HiBiT degradation assay, C-terminal HiBiT-tagged BRAF G469A overexpressed in HCT-116 BRAF−/− cells (clone 34), Nano-Glo HiBiT Lytic assay; conditions: BRAF G469A (Class 2), HCT-116 BRAF−/− cells; for DC50: DC50 at 50% degradation; for Dmax: observed Dmax relative to DMSO control
T2 construct: Horizon Discovery (HCT-116 BRAF−/− cells); host or cells: HCT-116 BRAF−/− cells, clone 34, lentiviral transduction
Outline: (§1)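 HCT-116 BRAF−/− cells stably expressing the tagged mutant were seeded at 3,000 cells/well and grown 24 h at 37 °C before an 11-point half-log series from 1 μM to 0.01 nM, run in duplicate at 0.2% DMSO. Lytic HiBiT luminescence gave % protein remaining versus DMSO controls; DC50 was the fitted concentration at 50%.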

BRAF D594G = target: T3, BRAF D594G (Homo sapiens, UniProt P15056, D594G); experiment: BRAF HiBiT degradation assay, C-terminal HiBiT-tagged BRAF D594G overexpressed in HCT-116 BRAF−/− cells (clone 63), Nano-Glo HiBiT Lytic assay; conditions: BRAF D594G (Class 3), HCT-116 BRAF−/− cells; for DC50: DC50 at 50% degradation; for Dmax: observed Dmax relative to DMSO control
T3 construct: Horizon Discovery (HCT-116 BRAF−/− cells); host or cells: HCT-116 BRAF−/− cells, clone 63, lentiviral transduction
Outline: as §1

BRAF G466V = target: T4, BRAF G466V (Homo sapiens, UniProt P15056, G466V); experiment: BRAF HiBiT degradation assay, C-terminal HiBiT-tagged BRAF G466V overexpressed in HCT-116 BRAF−/− cells (clone 8), Nano-Glo HiBiT Lytic assay; conditions: BRAF G466V (Class 3), HCT-116 BRAF−/− cells; for DC50: DC50 at 50% degradation; for Dmax: observed Dmax relative to DMSO control
T4 construct: Horizon Discovery (HCT-116 BRAF−/− cells); host or cells: HCT-116 BRAF−/− cells, clone 8, lentiviral transduction
Outline: as §1

T4 sequence (P15056 whole entry G466V): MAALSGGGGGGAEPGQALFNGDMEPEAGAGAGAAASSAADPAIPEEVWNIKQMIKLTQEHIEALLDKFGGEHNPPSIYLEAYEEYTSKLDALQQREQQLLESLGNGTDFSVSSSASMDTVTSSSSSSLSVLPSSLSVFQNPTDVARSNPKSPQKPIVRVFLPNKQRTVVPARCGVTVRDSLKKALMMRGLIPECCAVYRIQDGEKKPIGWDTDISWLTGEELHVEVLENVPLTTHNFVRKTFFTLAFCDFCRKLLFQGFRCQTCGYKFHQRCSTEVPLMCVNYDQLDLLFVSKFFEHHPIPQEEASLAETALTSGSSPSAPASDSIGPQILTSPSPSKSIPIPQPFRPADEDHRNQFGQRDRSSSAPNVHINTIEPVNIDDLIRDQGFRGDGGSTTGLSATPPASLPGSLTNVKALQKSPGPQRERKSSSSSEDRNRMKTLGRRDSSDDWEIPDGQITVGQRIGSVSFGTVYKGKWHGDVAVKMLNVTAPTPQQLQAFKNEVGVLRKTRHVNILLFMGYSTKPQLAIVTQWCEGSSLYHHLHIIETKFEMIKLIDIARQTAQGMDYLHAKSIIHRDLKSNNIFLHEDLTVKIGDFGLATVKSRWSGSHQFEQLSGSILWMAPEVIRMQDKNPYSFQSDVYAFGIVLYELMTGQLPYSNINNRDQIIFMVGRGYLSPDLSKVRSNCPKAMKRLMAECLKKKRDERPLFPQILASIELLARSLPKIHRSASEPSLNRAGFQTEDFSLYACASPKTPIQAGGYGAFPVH
T3 sequence (P15056 whole entry D594G): as the sequence (P15056 whole entry G466V) above, with V466G, D594G counted along it
T1 sequence (P15056 whole entry V600E, the tested form may be a part): as the sequence (P15056 whole entry G466V) above, with V466G, V600E counted along it
T2 sequence (P15056 whole entry G469A): as the sequence (P15056 whole entry G466V) above, with V466G, G469A counted along it

O=C1CCN(c2ccc(N3CCC(CN4CCN(c5ccc(-n6cc(-c7cc(Cl)cc(NS(=O)(=O)N8CCCC8)c7F)c(-c7ccncc7)n6)cc5)CC4)CC3)cc2)C(=O)N1 [Compound 283, N-[5-chloro-3-(1-{4-[4-({1-[4-(2,4-dioxo-1,3-diazinan-1-yl)phenyl]piperidin-4-yl}methyl)piperazin-1-yl]phenyl}-3-(pyridin-4-yl)-1H-pyrazol-4-yl)-2-fluorophenyl]pyrrolidine-1-sulfonamide]
DC50 (BRAF V600E): < 10 nM | Dmax (BRAF V600E): > 70% | DC50 (BRAF G469A): > 500 nM | Dmax (BRAF G469A): 30 to 70% | DC50 (BRAF D594G): < 10 nM | Dmax (BRAF D594G): 30 to 70% | DC50 (BRAF G466V): < 10 nM | Dmax (BRAF G466V): > 70%

O=C1CC[C@H](c2ccc(N3CCC(CN4CCN(c5ccc(-n6cc(-c7cc(Cl)cc(NS(=O)(=O)N8CCCC8)c7F)c(-c7ccncc7)n6)cc5)CC4)CC3)nc2)C(=O)N1 [Compound 285, N-{5-chloro-3-[1-(4-{4-[(1-{5-[(3R)-2,6-dioxopiperidin-3-yl]pyridin-2-yl}piperidin-4-yl)methyl]piperazin-1-yl}phenyl)-3-(pyridin-4-yl)-1H-pyrazol-4-yl]-2-fluorophenyl}pyrrolidine-1-sulfonamide]
DC50 (BRAF V600E): < 10 nM | Dmax (BRAF V600E): > 70% | DC50 (BRAF G469A): < 10 nM | Dmax (BRAF G469A): > 70% | DC50 (BRAF D594G): < 10 nM | Dmax (BRAF D594G): 30 to 70% | DC50 (BRAF G466V): < 10 nM | Dmax (BRAF G466V): > 70%

O=C1CC[C@H](c2ccc(N3CCC(CN4CCN(c5ccc(-n6cc(-c7cc(Cl)cc(NS(=O)(=O)N8CCCC8)c7F)c(-c7ccncc7)n6)nc5)CC4)CC3)cc2)C(=O)N1 [Compound 286, N-{5-chloro-3-[1-(5-{4-[(1-{4-[(3R)-2,6-dioxopiperidin-3-yl]phenyl}piperidin-4-yl)methyl]piperazin-1-yl}pyridin-2-yl)-3-(pyridin-4-yl)-1H-pyrazol-4-yl]-2-fluorophenyl}pyrrolidine-1-sulfonamide]
DC50 (BRAF V600E): < 10 nM | Dmax (BRAF V600E): > 70% | DC50 (BRAF G469A): 10 to 50 nM | Dmax (BRAF G469A): 30 to 70% | DC50 (BRAF D594G): < 10 nM | Dmax (BRAF D594G): > 70% | DC50 (BRAF G466V): < 10 nM | Dmax (BRAF G466V): > 70%

O=C1CCN(c2ccc(N3CCC(CN4CCN(c5ccc(-n6cc(-c7cc(Cl)cc(NS(=O)(=O)N8CCCC8)c7F)c(-c7ccncc7)n6)nc5)CC4)CC3)cc2)C(=O)N1 [Compound 287, N-[5-chloro-3-(1-{5-[4-({1-[4-(2,4-dioxo-1,3-diazinan-1-yl)phenyl]piperidin-4-yl}methyl)piperazin-1-yl]pyridin-2-yl}-3-(pyridin-4-yl)-1H-pyrazol-4-yl)-2-fluorophenyl]pyrrolidine-1-sulfonamide]
DC50 (BRAF V600E): < 10 nM | Dmax (BRAF V600E): > 70% | DC50 (BRAF G469A): 10 to 50 nM | Dmax (BRAF G469A): 30 to 70% | DC50 (BRAF D594G): < 10 nM | Dmax (BRAF D594G): 30 to 70% | DC50 (BRAF G466V): < 10 nM | Dmax (BRAF G466V): 30 to 70%

O=C1CC[C@H](c2ccc(N3CCC(CN4CCN(c5ccc(-n6cc(-c7cc(Cl)cc(NS(=O)(=O)N8CCCC8)c7F)c(-c7ccncc7)n6)nc5)CC4)CC3)nc2)C(=O)N1 [Compound 290, N-{5-chloro-3-[1-(5-{4-[(1-{5-[(3R)-2,6-dioxopiperidin-3-yl]pyridin-2-yl}piperidin-4-yl)methyl]piperazin-1-yl}pyridin-2-yl)-3-(pyridin-4-yl)-1H-pyrazol-4-yl]-2-fluorophenyl}pyrrolidine-1-sulfonamide]
DC50 (BRAF V600E): < 10 nM | Dmax (BRAF V600E): > 70% | DC50 (BRAF G469A): < 10 nM | Dmax (BRAF G469A): > 70% | DC50 (BRAF D594G): < 10 nM | Dmax (BRAF D594G): > 70% | DC50 (BRAF G466V): < 10 nM | Dmax (BRAF G466V): > 70%

O=C1CC[C@H](c2ccc(N3CCC(CN4CCN(c5ccc(-n6cc(-c7cc(Cl)cc(NS(=O)(=O)N8CC[C@@H](F)C8)c7F)c(-c7ccncc7)n6)cc5)CC4)CC3)cc2)C(=O)N1 [Compound 291, (3R)—N-{5-chloro-3-[1-(4-{4-[(1-{4-[(3R)-2,6-dioxopiperidin-3-yl]phenyl}piperidin-4-yl)methyl]piperazin-1-yl}phenyl)-3-(pyridin-4-yl)-1H-pyrazol-4-yl]-2-fluorophenyl}-3-fluoropyrrolidine-1-sulfonamide]
DC50 (BRAF V600E): < 10 nM | Dmax (BRAF V600E): > 70% | DC50 (BRAF G469A): < 10 nM | Dmax (BRAF G469A): > 70% | DC50 (BRAF D594G): < 10 nM | Dmax (BRAF D594G): > 70% | DC50 (BRAF G466V): < 10 nM | Dmax (BRAF G466V): > 70%
